pIC50: −log10 of the molar value.
Biological target: b-Raf(V600E) (Homo sapiens, UniProt P15056, V600E)
Experiment: Raf/Mek Amplified Luminescence Proximity Homogeneous Assay (Alpha Screen)
Assay type: biochemical
Settings: b-Raf(V600E) approximately 4 pM; biotinylated Mek, kinase dead approximately 10 nM; ATP 10 μM; pre-incubation 60 minutes; reaction 3 hours at room temperature; read-out: mut-bRaf IC50
Protocol: Raf/Mek Amplified Luminescence Proximity Homogeneous Assay
Assay buffer: 50 mM Tris, pH 7.5, 15 mM MgCl2, 0.01% Bovine Serum Albumin (BSA), 1 mM dithiothreitol (DTT) Stop buffer: 60 mM ethylenediaminetetraacetic acid (EDTA), 0.01% Tween® 20 Bead buffer: 50 mM Tris, pH 7.5, 0.01% Tween® 20 […]
biotinylated Mek, kinase dead
Alpha Screen detection kit (available from PerkinElmer™, #6760617R)
Anti phospho-MEK1/2 (available from Cell Signaling Technology, Inc. #9121) 384 well assay plates (White Greiner® plates, #781207) […]
b-Raf(V600E) approximately 4 pM […]
biotinylated Mek, Kinase dead approximately 10 nM
Pre-incubation time with compounds 60 minutes at room temperature
Reaction time 1 or 3 hours at room temperature
Raf and biotinylated Mek, kinase dead, were combined at 2× final concentrations in assay buffer (50 mM Tris, pH 7.5, 15 mM MgCl2, 0.01% BSA and 1 mM DTT) and dispensed 10 μl per well in assay plates (Greiner white 384 well assay plates #781207) containing 0.5 μl of 40× of a raf kinase inhibitor test compound diluted in 100% DMSO. The plate was incubated for 60 minutes at room temperature.
The Raf kinase activity reaction was started by the addition of 10 μL per well of 2×ATP diluted in assay buffer. After 3 hours (bRaf(V600E)) or 1 hour (c-Raf), the reactions were stopped with the addition of 10 μL of stop reagent (60 mM EDTA). Phosphorylated product was measured using a rabbit anti-p-MEK (Cell Signaling, #9121) antibody and the Alpha Screen IgG (ProteinA) detection Kit (PerkinElmer #6760617R), by the addition of 30 μL to the well of a mixture of the antibody (1:2000 dilution) and detection beads (1:2000 dilution of both beads) in bead buffer (50 mM Tris, pH 7.5, 0.01% Tween20). The additions were carried out under dark conditions to protect the detection beads from light. A lid was placed on top of the plate and incubated for 1 hour at room temperature, then the luminescence was read on a PerkinElmer Envision instrument. The concentration of each compound for 50% inhibition (IC50) was calculated by non-linear regression using XL Fit data analysis software.

Chain of b-Raf(V600E) (P15056 whole entry V600E): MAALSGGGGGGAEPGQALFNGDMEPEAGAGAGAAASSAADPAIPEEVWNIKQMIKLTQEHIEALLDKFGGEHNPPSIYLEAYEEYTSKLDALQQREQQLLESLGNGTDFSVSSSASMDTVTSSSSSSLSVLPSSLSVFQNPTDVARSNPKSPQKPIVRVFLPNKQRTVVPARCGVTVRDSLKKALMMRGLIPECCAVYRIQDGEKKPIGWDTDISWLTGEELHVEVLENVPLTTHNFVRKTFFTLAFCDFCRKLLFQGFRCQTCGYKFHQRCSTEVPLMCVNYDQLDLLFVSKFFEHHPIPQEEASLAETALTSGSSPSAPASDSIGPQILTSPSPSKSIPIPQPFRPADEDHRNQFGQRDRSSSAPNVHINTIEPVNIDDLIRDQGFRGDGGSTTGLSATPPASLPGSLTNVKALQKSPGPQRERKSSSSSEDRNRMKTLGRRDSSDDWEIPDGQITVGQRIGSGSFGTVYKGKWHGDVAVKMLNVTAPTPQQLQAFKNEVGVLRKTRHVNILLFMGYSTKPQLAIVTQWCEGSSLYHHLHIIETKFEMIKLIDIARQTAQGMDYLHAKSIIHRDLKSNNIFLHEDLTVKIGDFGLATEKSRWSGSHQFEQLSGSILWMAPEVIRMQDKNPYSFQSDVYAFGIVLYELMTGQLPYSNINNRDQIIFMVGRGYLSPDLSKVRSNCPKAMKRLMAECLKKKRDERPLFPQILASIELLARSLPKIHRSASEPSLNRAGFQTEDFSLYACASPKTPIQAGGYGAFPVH

SMILES | pIC50
COC(=O)N[C@@H](C)CNc1nccc(-c2sc(C(C)(C)C)nc2-c2cc(F)cc(NS(C)(=O)=O)c2Cl)n1 [Example 1, (S)-methyl 1-(4-(2-tert-butyl-4-(2-chloro-5-fluoro-3-(methylsulfonamido)phenyl)thiazol-5-yl)pyrimidin-2-ylamino)propan-2-ylcarbamate] | 9.60
CCCS(=O)(=O)Nc1cc(F)cc(-c2nc(C(C)(C)C)sc2-c2ccncn2)c1Cl [Example 2, N-(3-(2-tert-butyl-5-(pyrimidin-4-yl)thiazol-4-yl)-2-chloro-5-fluorophenyl)propane-1-sulfonamide] | 9.36
COC(=O)N[C@@H](C)CNc1nccc(-c2sc(C3CC3)nc2-c2cc(F)cc(NS(C)(=O)=O)c2Cl)n1 [Example 3, (S)-methyl 1-(4-(4-(2-chloro-5-fluoro-3-(methylsulfonamido)phenyl)-2-cyclopropylthiazol-5-yl)pyrimidin-2-ylamino)propan-2-ylcarbamate] | 9.66
COC(=O)N[C@@H](C)CNc1nccc(-c2sc(C3CC3)nc2-c2cc(Cl)cc(NS(C)(=O)=O)c2F)n1 [Example 4, (S)-methyl 1-(4-(4-(5-chloro-2-fluoro-3-(methylsulfonamido)phenyl)-2-cyclopropylthiazol-5-yl)pyrimidin-2-ylamino)propan-2-ylcarbamate] | 9.92
COC(=O)N[C@@H](C)CNc1nccc(-c2oc(C3CC3)nc2-c2cc(Cl)cc(NS(C)(=O)=O)c2F)n1 [Example 5, (S)-methyl 1-(4-(4-(5-chloro-2-fluoro-3-(methylsulfonamido)phenyl)-2-cyclopropyloxazol-5-yl)pyrimidin-2-ylamino)propan-2-ylcarbamate] | 9.09
CCCS(=O)(=O)Nc1cccc(-c2nc(C3CC3)oc2-c2ccnc(NC)n2)c1F [Example 6, N-(3-(2-cyclopropyl-5-(2-(methylamino)pyrimidin-4-yl)oxazol-4-yl)-2-fluorophenyl)propane-1-sulfonamide] | 7.55
CCCS(=O)(=O)Nc1cccc(-c2nc(C(C)(C)C)sc2-c2ccnc(NC[C@H](C)NC(=O)OC)n2)c1Cl [Example 7, (S)-methyl 1-(4-(2-tert-butyl-4-(2-chloro-3-(propylsulfonamido)phenyl)thiazol-5-yl)pyrimidin-2-ylamino)propan-2-ylcarbamate] | 9.66
CCCS(=O)(=O)Nc1cc(F)cc(-c2nc(C(C)(C)C)sc2-c2ccnc(NC)n2)c1Cl [Example 8] | 9.85
CCCS(=O)(=O)Nc1cc(F)cc(-c2nc(C(C)(C)C)sc2-c2ccnc(N)n2)c1Cl [Example 9] | 9.85
CCCS(=O)(=O)Nc1cc(F)cc(-c2nc(C(C)(C)C)sc2-c2ccnc(NC[C@H](C)NC(=O)OC)n2)c1Cl [Example 10] | 9.48
CNc1nccc(-c2sc(C(C)(C)C)nc2-c2cc(F)cc(NS(C)(=O)=O)c2Cl)n1 [Example 11] | 8.22
CC(C)(C)c1nc(-c2cc(F)cc(NS(C)(=O)=O)c2Cl)c(-c2ccnc(N)n2)s1 [Example 12] | 8.05
CCCS(=O)(=O)Nc1cc(F)cc(-c2nc(C3CC3)sc2-c2ccnc(N)n2)c1Cl [Example 13] | 9.89
CCCS(=O)(=O)Nc1cc(F)cc(-c2nc(C3CC3)sc2-c2ccnc(NC)n2)c1Cl [Example 14] | 10.04
CCCS(=O)(=O)Nc1cc(F)cc(-c2nc(C3CC3)sc2-c2ccnc(NC[C@H](C)NC(=O)OC)n2)c1Cl [Example 15] | 10.11
CS(=O)(=O)Nc1cc(F)cc(-c2nc(C3CC3)sc2-c2ccnc(N)n2)c1Cl [Example 16] | 7.82
CS(=O)(=O)Nc1cc(F)cc(-c2nc(C3CC3)oc2-c2ccnc(N)n2)c1Cl [Example 17] | 8.57
CNc1nccc(-c2oc(C3CC3)nc2-c2cc(F)cc(NS(C)(=O)=O)c2Cl)n1 [Example 18] | 7.74
COC(=O)N[C@@H](C)CNc1nccc(-c2oc(C3CC3)nc2-c2cc(F)cc(NS(C)(=O)=O)c2Cl)n1 [Example 19] | 8.82
CNc1nccc(-c2sc(C3CC3)nc2-c2cc(Cl)cc(NS(C)(=O)=O)c2F)n1 [Example 20] | 8.52
